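Cultured in 96-well plates, cells were exposed to test compound for 48 hours across five concentrations. At the GI50, growth is halved. TGI: concentration producing complete growth inhibition.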
Assays:
Assay in all cases: NCI tumour cell line growth inhibition, 48 h
MDA-MB-435 = system: MDA-MB-435
MOLT-4 leukemia = system: MOLT-4 leukemia
SK-MEL-5 melanoma = system: SK-MEL-5 melanoma
SF-539 CNS = system: SF-539 CNS
HT29 colon = system: HT29 colon
TK-10 renal = system: TK-10 renal
HL-60(TB) leukemia = system: HL-60(TB) leukemia
EKVX NSCLC = system: EKVX NSCLC
M14 melanoma = system: M14 melanoma
OVCAR-8 ovarian = system: OVCAR-8 ovarian
SF-268 CNS = system: SF-268 CNS
SNB-19 CNS = system: SNB-19 CNS
SW-620 colon = system: SW-620 colon
DU-145 prostate = system: DU-145 prostate
SK-OV-3 ovarian = system: SK-OV-3 ovarian
UACC-62 melanoma = system: UACC-62 melanoma
OVCAR-3 ovarian = system: OVCAR-3 ovarian
MALME-3M melanoma = system: MALME-3M melanoma
COLO 205 colon = system: COLO 205 colon
MCF7 breast = system: MCF7 breast
OVCAR-4 ovarian = system: OVCAR-4 ovarian
RXF 393 renal = system: RXF 393 renal
BT-549 breast = system: BT-549 breast
U251 CNS = system: U251 CNS
SR leukemia = system: SR leukemia
HCT-116 colon = system: HCT-116 colon
OVCAR-5 ovarian = system: OVCAR-5 ovarian
SN12C renal = system: SN12C renal
SF-295 CNS = system: SF-295 CNS
CAKI-1 renal = system: CAKI-1 renal
A498 renal = system: A498 renal
HS 578T breast = system: HS 578T breast
A549 NSCLC = system: A549 NSCLC
MDA-MB-231 breast = system: MDA-MB-231 breast
KM12 colon = system: KM12 colon
CCRF-CEM leukemia = system: CCRF-CEM leukemia
SNB-75 CNS = system: SNB-75 CNS
HOP-62 NSCLC = system: HOP-62 NSCLC
T-47D breast = system: T-47D breast
PC-3 prostate = system: PC-3 prostate
HOP-92 NSCLC = system: HOP-92 NSCLC
UACC-257 melanoma = system: UACC-257 melanoma
NCI-H23 lung = system: NCI-H23 lung
NCI/ADR-RES ovarian = system: NCI/ADR-RES ovarian
SK-MEL-28 melanoma = system: SK-MEL-28 melanoma
IGROV1 ovarian = system: IGROV1 ovarian
HCC-2998 colon = system: HCC-2998 colon
SK-MEL-2 melanoma = system: SK-MEL-2 melanoma
HCT-15 colon = system: HCT-15 colon
K-562 leukemia = system: K-562 leukemia
NCI-H460 lung = system: NCI-H460 lung
NCI-H226 lung = system: NCI-H226 lung

## O=C(CSc1nnc(-c2ccc(Cl)cc2)n1-c1ccccc1)Nc1cccc(F)c1
MDA-MB-435
  GI50: > 100 µM
  TGI: > 100 µM
MOLT-4 leukemia
  GI50: > 100 µM
  TGI: > 100 µM
SK-MEL-5 melanoma
  GI50: > 55.4 µM
  TGI: > 100 µM
SF-539 CNS
  GI50: 2.33 µM
  TGI: > 22.4 µM
HT29 colon
  GI50: > 27 µM
  TGI: > 100 µM
TK-10 renal
  GI50: 4.65 µM
  TGI: > 100 µM
HL-60(TB) leukemia
  GI50: > 100 µM
  TGI: > 100 µM
EKVX NSCLC
  GI50: > 23 µM
  TGI: > 100 µM
M14 melanoma
  GI50: > 100 µM
  TGI: > 100 µM
OVCAR-8 ovarian
  GI50: 3.03 µM
  TGI: > 100 µM
SF-268 CNS
  GI50: > 21.4 µM
  TGI: > 100 µM
SNB-19 CNS
  GI50: 6.27 µM
  TGI: > 100 µM
SW-620 colon
  GI50: 5 µM
  TGI: > 100 µM
DU-145 prostate
  GI50: > 30.3 µM
  TGI: > 100 µM
SK-OV-3 ovarian
  GI50: 10.2 µM
  TGI: > 100 µM
UACC-62 melanoma
  GI50: > 100 µM
  TGI: > 100 µM
OVCAR-3 ovarian
  GI50: 4.11 µM
  TGI: 73.9 µM
MALME-3M melanoma
  GI50: 3.9 µM
  TGI: > 100 µM
COLO 205 colon
  GI50: > 100 µM
  TGI: > 100 µM
MCF7 breast
  GI50: 3.47 µM
  TGI: > 100 µM
OVCAR-4 ovarian
  GI50: > 100 µM
  TGI: > 100 µM
RXF 393 renal
  GI50: 2.86 µM
  TGI: > 36 µM
BT-549 breast
  GI50: > 100 µM
  TGI: > 100 µM
U251 CNS
  GI50: 1.62 µM
  TGI: 4.46 µM
SR leukemia
  GI50: > 35.3 µM
  TGI: > 100 µM
HCT-116 colon
  GI50: 2.38 µM
  TGI: > 100 µM
OVCAR-5 ovarian
  TGI: > 100 µM
SN12C renal
  GI50: 1.91 µM
  TGI: 6.26 µM
SF-295 CNS
  GI50: 3.98 µM
  TGI: > 70.6 µM
CAKI-1 renal
  GI50: 2.89 µM
  TGI: > 100 µM
A498 renal
  GI50: 4.5 µM
  TGI: 73.9 µM
HS 578T breast
  GI50: 3.3 µM
  TGI: > 100 µM
A549 NSCLC
  GI50: 2.77 µM
  TGI: > 100 µM
MDA-MB-231 breast
  GI50: 2.36 µM
  TGI: > 24.2 µM
KM12 colon
  GI50: > 21 µM
  TGI: > 100 µM
CCRF-CEM leukemia
  GI50: > 100 µM
  TGI: > 100 µM
SNB-75 CNS
  GI50: 2.09 µM
  TGI: > 30.5 µM
HOP-62 NSCLC
  GI50: 3.18 µM
  TGI: > 26.4 µM
T-47D breast
  GI50: 1.58 µM
  TGI: > 100 µM
PC-3 prostate
  GI50: > 100 µM
  TGI: > 100 µM
HOP-92 NSCLC
  GI50: 4 µM
  TGI: > 100 µM
UACC-257 melanoma
  GI50: > 100 µM
  TGI: > 100 µM
NCI-H23 lung
  GI50: 5.14 µM
  TGI: > 100 µM
NCI/ADR-RES ovarian
  GI50: 2.26 µM
  TGI: 8.77 µM
SK-MEL-28 melanoma
  GI50: > 100 µM
  TGI: > 100 µM
IGROV1 ovarian
  GI50: 3.2 µM
  TGI: > 100 µM
HCC-2998 colon
  GI50: > 30.3 µM
  TGI: > 100 µM
SK-MEL-2 melanoma
  GI50: > 100 µM
  TGI: > 100 µM
HCT-15 colon
  GI50: > 100 µM
  TGI: > 100 µM
K-562 leukemia
  GI50: > 100 µM
  TGI: > 100 µM
NCI-H460 lung
  GI50: 1.49 µM
NCI-H226 lung
  GI50: 4.11 µM
  TGI: > 100 µM
